One test has as its target αvβ3 (Homo sapiens, UniProt P05106+P06756). The test is described as follows: Solid-phase receptor binding ELISA: competition with biotinylated fibrinogen on coated integrin receptor. As to conditions: ligand biotinylated fibrinogen 1 μg/ml; receptor coated at 1 μg/ml; 3 h at 30° C.; triplicates. On the procedure:
(§1) The effect was found by using the method of J. W. Smith, Z. M. Ruggei, T. J. Kunicki and D. A. Cheesh descibed in J. Biol. Chem. 265, 12 267-12 271 (1990).
(§2) Details of the method are as follows:
(§3) A ninety six well untreated flat bottom plate was coated with 100 μl/well of 1 μg/ml receptor (αIIβe; αVβ3) in coating buffer and incubated on a shaker at 4° C. overnight. The plate was washed 1× with binding buffer and then blocked with blocking buffer (100 μl/well for two hours at 30° C. After an additional washing with binding buffer, the biotinylated ligand and the competitor were added.
(§4) The ligand fibrinogen was used at a final concentration of 1 μg/ml. The competitor was added at increasing concentrations. Both ligand and competitor were added in volume of 50 μl/well at 2× of the final concentration diluted in binding buffer.
(§5) The plate was covered and incubated for three hours at 30° C. To remove unbound material the plate was washed 3× with binding buffer 100 μl/well.
(§6) Goat anti biotin antibody alkaline phosphatase conjugate (1:2000 dilution) in binding buffer was added (100 μl/well) and the plate was incubated for one hour at 30° C.
(§7) The plate was washed 3× with binding buffer, the substrate solution was added and developed in the dark at room temperature for 1-5 minutes.
(§8) The reaction was stopped by addition of 100 μl/well of 0.4M NaOH and read in the ELISA reader at 405 nm.
(§9) All points were run in triplicates.

The target in the next test is αIIbβ3 (Homo sapiens, UniProt P05106+P08514). Described as above. As to conditions: ligand biotinylated fibrinogen 1 μg/ml; receptor coated at 1 μg/ml; 3 h at 30° C.; triplicates. The method, then:
as §1, §2, §3, §4, §5, §6, §7, §8, §9

The values that follow come from patent publication US5866540A, “Cyclic adhesion inhibitors” (Merck Patent Gesellschaft mit Beschrankter Haftung, priority 1995, dated 1999).

Where a SMILES comes first, the peptide text is derived from it. [ ]: non-standard residue; d: D form. Where only a bound is given, the exact number is not on record here.

As to `CC(C)C[C@@H]1NC(=O)[C@@H](Cc2ccccc2)NC(=O)[C@H](CC(=O)O)NC(=O)CNC(=O)[C@H](CCCNC(=N)N)NC(=O)CNC1=O` [cyclo(--Arg--Gly--Asp--D--Phe--Leu--Gly), cyclo(-Arg-Gly-Asp-D-Phe-Leu-Gly)] (cyclo(GRGD[dF]L)), the IC50 at αvβ3 turned out to be 0.54 µM; on αIIbβ3 it was 0.06 µM.

For the compound `CC(C)[C@@H]1NC(=O)[C@H](Cc2ccccc2)NC(=O)[C@H](CC(=O)O)NC(=O)CNC(=O)[C@H](CCCNC(=N)N)NC(=O)[C@@H](C)NC1=O` [cyclo(--Arg--Gly--Asp--Phe--Val--D--Ala), cyclo(-Arg-Gly-Asp-Phe-Val-D-Ala)] (cyclo(RGDFV[dA])), the IC50 at αvβ3 was 0.25 µM; on αIIbβ3, 1.5 µM.

Take `N=C(N)NCCC[C@@H]1NC(=O)CNC(=O)[C@H]2CCCN2C(=O)[C@H](Cc2ccccc2)NC(=O)[C@H](CC(=O)O)NC(=O)CNC1=O` [cyclo(--Arg--Gly--Asp--Phe--D--Pro--Gly)] (cyclo(RGDF[dP]G)): the IC50 amounted to 1.06 µM at αvβ3 and 1.5 µM at αIIbβ3.

For `CC(C)C[C@@H]1NC(=O)[C@@H](Cc2ccccc2)NC(=O)[C@H](CC(=O)O)NC(=O)CNC(=O)[C@H](CCCNC(=N)N)NC(=O)[C@H](C)NC1=O` [cyclo(--Arg--Gly--Asp--D--Phe--Leu--Ala), cyclo(-Arg-Gly-Asp-D-Phe-Leu-Ala)] (cyclo(ARGD[dF]L)), the half-maximal inhibitory concentration (IC50) on αvβ3 came to 1.1 µM; at αIIbβ3, 0.76 µM.

As for `CC(C)[C@@H]1NC(=O)[C@@H](Cc2ccccc2)NC(=O)[C@H](CC(=O)O)NC(=O)CNC(=O)[C@H](CCCNC(=N)N)NC(=O)CNC1=O` [cyclo(--Arg--Gly--Asp--D--Phe--Val--Gly), cyclo(-Arg-Gly-Asp-D-Phe-Val-Gly)] (cyclo(RGD[dF]VG)), the IC50 at αvβ3 was 0.62 µM; on αIIbβ3 it was 0.13 µM.

Consider `CC(C)[C@@H]1NC(=O)[C@H](Cc2ccccc2)NC(=O)[C@H](CC(=O)O)NC(=O)CNC(=O)[C@@H](CCCNC(=N)N)NC(=O)[C@H](C)NC1=O` [cyclo(--D--Arg--Gly--Asp--Phe--Val--Ala), cyclo(-D-Arg-Gly-Asp-Phe-Val-Ala)] (cyclo([dR]GDFVA)), for which the values for the IC50 at αvβ3 and on αIIbβ3 were 4.5 µM and 22 µM, respectively.

`CC(C)[C@@H]1NC(=O)[C@H](Cc2ccccc2)NC(=O)[C@H](CC(=O)O)NC(=O)[C@@H](C)NC(=O)[C@H](CCCNC(=N)N)NC1=O` [cyclo(--Arg--D--Ala--Asp--Phe--Val), cyclo(-Arg-D-Ala-Asp-Phe-Val)] (cyclo(R[dA]DFV)): the IC50 at αvβ3 is 52 µM; on αIIbβ3, over 100 µM.

Take `C[C@@H]1NC(=O)[C@H]2CCCN2C(=O)[C@H](Cc2ccccc2)NC(=O)[C@H](CC(=O)O)NC(=O)CNC(=O)[C@H](CCCNC(=N)N)NC1=O` [cyclo(--Arg--Gly--Asp--Phe--D--Pro--Ala), cyclo(-Arg-Gly-Asp-Phe-D-Pro-Ala)] (cyclo(RGDF[dP]A)): the IC50 at αvβ3 stood at 0.37 µM; on αIIbβ3, 0.74 µM.

On to `CC(C)[C@@H]1NC(=O)[C@H](Cc2ccccc2)NC(=O)[C@H](CC(=O)O)NC(=O)CNC(=O)[C@@H](CCCNC(=N)N)NC(=O)CNC1=O` [cyclo(--D--Arg--Gly--Asp--Phe--Val--Gly), cyclo(-D-Arg-Gly-Asp-Phe-Val-Gly)] (cyclo(G[dR]GDFV)), for which the IC50 is 1.52 µM at αvβ3 and 20.5 µM at αIIbβ3.

Turning to `N=C(N)NCCC[C@@H]1NC(=O)CNC(=O)[C@@H]2CCCN2C(=O)[C@H](Cc2ccccc2)NC(=O)[C@H](CC(=O)O)NC(=O)CNC1=O` [cyclo(--Arg--Gly--Asp--Phe--Pro--Gly), cyclo(-Arg-Gly-Asp-Phe-Pro-Gly)] (cyclo(RGDFPG)), the IC50 at αvβ3 came out at 0.16 µM; on αIIbβ3 it was 1.53 µM.

Turning to `C[C@@H]1NC(=O)[C@@H]2CCCN2C(=O)[C@H](Cc2ccccc2)NC(=O)[C@H](CC(=O)O)NC(=O)CNC(=O)[C@H](CCCNC(=N)N)NC1=O` [cyclo(--Arg--Gly--Asp--Phe--Pro--Ala), cyclo(-Arg-Gly-Asp-Phe-Pro-Ala)] (cyclo(RGDFPA)), the results for the IC50 at αvβ3 and on αIIbβ3 were 0.48 µM and 0.62 µM, respectively.

On to `CC(C)[C@@H]1NC(=O)[C@@H](Cc2ccccc2)NC(=O)[C@H](CC(=O)O)NC(=O)CNC(=O)[C@H](CCCNC(=N)N)NC(=O)[C@H](C)NC1=O` [cyclo(--Arg--Gly--Asp--D--Phe--Val--Ala), cyclo(-Arg-Gly-Asp-D-Phe-Val-Ala)] (cyclo(RGD[dF]VA)), for which the IC50 is 0.9 µM on αvβ3 and 0.32 µM on αIIbβ3.

Take `CC(C)C[C@@H]1NC(=O)[C@H](Cc2ccccc2)NC(=O)[C@H](CC(=O)O)NC(=O)CNC(=O)[C@H](CCCNC(=N)N)NC(=O)[C@@H](C)NC1=O` [cyclo(--Arg--Gly--Asp--Phe--Leu--D--Ala), cyclo(-Arg-Gly-Asp-Phe-Leu-D-Ala)] (cyclo(RGDFL[dA])): the IC50 on αvβ3 was 0.31 µM; at αIIbβ3, 0.76 µM.

As for `CC(C)[C@@H]1NC(=O)[C@@H](Cc2ccccc2)NC(=O)[C@H](CC(=O)O)NC(=O)[C@H](C)NC(=O)[C@H](CCCN=C(N)N)NC1=O` [cyclo(--Arg--Ala--Asp--D--Phe--Val), cyclo(-Arg-Ala-Asp-D-Phe-Val)] (cyclo(AD[dF]VR)), the 50% inhibitory concentration (IC50) on αvβ3 was 0.77 µM; at αIIbβ3, over 100 µM.
